Assays:
A498 = assay: In vitro inhibitory concentration against renal cancer cell line A498; format: functional, cell-based; details: Homo sapiens
CAKI-1 = assay: In vitro inhibitory concentration against renal cancer cell line […]; format: functional, cell-based; details: Homo sapiens
HOP-92 = assay: In vitro inhibitory concentration against non small cell lung HOP-92 cell line; format: functional, cell-based; details: Homo sapiens
[1] = Average inhibitory concentration against 60 human cell lines was reported; format: functional
PC-3 = assay: In vitro inhibitory concentration against prostate cancer cell line PC-3; format: functional, cell-based; details: Homo sapiens
UACC-257 = assay: In vitro inhibitory concentration against melanoma cell line UACC-257; format: functional, cell-based; details: Homo sapiens
T47D = assay: In vitro inhibitory concentration against breast cancer cell line T-47D; format: functional, cell-based; details: Homo sapiens
EKVX = assay: In vitro inhibitory concentration against non small cell lung EKVX cell line; format: functional, cell-based; details: Homo sapiens
Hs-578T = assay: In vitro inhibitory concentration against breast cancer cell line Hs 578.T; format: functional, cell-based; details: Homo sapiens
NCI-H322M = assay: In vitro inhibitory concentration against non small cell lung NCI-H322M cell line; format: functional, cell-based; details: Homo sapiens
K562 = assay: In vitro inhibitory concentration against leukemia cell line K-562; format: functional, cell-based; details: Homo sapiens
NCI-H226 = assay: In vitro inhibitory concentration against non small cell lung NCI-H226 cell line; format: functional, cell-based; details: Homo sapiens
SR = assay: In vitro inhibitory concentration against leukemia cell line SR; format: functional, cell-based; details: Homo sapiens
IGROV-1 = assay: In vitro inhibitory concentration against ovarian cancer cell line IGROV1; format: functional, cell-based; details: Homo sapiens
UO-31 = assay: In vitro inhibitory concentration against renal cancer cell line UO-31; format: functional, cell-based; details: Homo sapiens
U-251 = assay: In vitro inhibitory concentration against CNS cancer cell line U251; format: functional, cell-based; details: Homo sapiens

| IC50 (A498) | IC50 (CAKI-1) | IC50 (HOP-92) | IC50 [1] | IC50 (EKVX) | IC50 (NCI-H322M) | IC50 (K562) | IC50 (NCI-H226) | further results | Structure (SMILES) |
| --- | --- | --- | --- | --- | --- | --- | --- | --- | --- |
| 20900 nM | 17400 nM | 560 nM | 3980 nM | – | – | – | – | IC50 (PC-3): 1410 nM | Cc1c2cccc-2c(N(C)C)cc2c1[nH]c1ccccc12 |
| 21900 nM | – | – | 5370 nM | 1780 nM | – | – | – | IC50 (UACC-257): 24000 nM; IC50 (T47D): 1700 nM | Cc1c2cccc-2ccc2c1[nH]c1ccc(Br)cc12 |
| 13800 nM | – | – | 2510 nM | 1000 nM | 17000 nM | – | – | IC50 (Hs-578T): 930 nM | Cc1c2cccc-2c(OCCO)cc2c1[nH]c1ccccc12 |
| – | – | 1380 nM | 2750 nM | – | 14500 nM | 510 nM | 11200 nM | – | CC(=O)OCCOc1cc2c([nH]c3ccccc32)c(C)c2cccc1-2 |
| – | – | – | 2190 nM | – | – | 3800 nM | 1380 nM | IC50 (SR): 4570 nM; IC50 (IGROV-1): 1580 nM | CC(=O)Oc1ccc2[nH]c3c(C)c4cccc-4ccc3c2c1 |
| 11700 nM | 6600 nM | – | 2400 nM | – | – | – | – | IC50 (UO-31): 1620 nM; IC50 (U-251): 1480 nM | Cc1c2cccc-2ccc2c1[nH]c1ccccc12 |

From ChEMBL document CHEMBL1133884, “Microwave-assisted [6+4]-cycloaddition of fulvenes and alpha-pyrones to azulene-indoles: facile syntheses of novel antineoplastic agents” (Bioorg Med Chem Lett, 2001)
